Measurements: BindingDB's records for doi:10.1021/jm970110p (Universit&#233, 1998)

Target: Reverse transcriptase/RNaseH (Human immunodeficiency virus 1, UniProt Q72547)
Test: Inhibitory concentration against HIV-1 reverse transcriptase

Row | EC50 | Structure (SMILES)
1 | 0.21 µM | CCc1c(Cc2ccccc2)[n]([Au])c(=O)[nH]c1=O [6-Benzyl-5-ethyl-1-aurus-1H-pyrimidine-2,4-dione]
2 | 0.042 µM | CC(C)c1c(Cc2ccccc2)[n]([Au])c(=O)[nH]c1=O [6-Benzyl-5-isopropyl-1-aurus-1H-pyrimidine-2,4-dione]
